Results reported in patent publication US20120121591A1 (priority 2009, published 2012).
Like-named read-outs stand apart in the source and are kept apart here.

How the values were obtained:
Type in all cases: cell-based
hKv1.3 = hKv1.3 (Homo sapiens, UniProt P22001); experiment: cell-based; settings: Kv1.3 (IWQ) IC50 (nM, Avg)
[1] = test system: IFN-g secretion from T cells in human whole blood
[2] = test system: IL-2 secretion from T cells in human whole blood; settings: read-out: WB (IL-2) IC50 (nM, Avg)
[3] = read-out: WB (IFNg) IC50 (nM, Avg)
[4] = read-out: WB (IFNg) IC5- (nM, Avg)

Sequence of hKv1.3 (P22001 whole entry): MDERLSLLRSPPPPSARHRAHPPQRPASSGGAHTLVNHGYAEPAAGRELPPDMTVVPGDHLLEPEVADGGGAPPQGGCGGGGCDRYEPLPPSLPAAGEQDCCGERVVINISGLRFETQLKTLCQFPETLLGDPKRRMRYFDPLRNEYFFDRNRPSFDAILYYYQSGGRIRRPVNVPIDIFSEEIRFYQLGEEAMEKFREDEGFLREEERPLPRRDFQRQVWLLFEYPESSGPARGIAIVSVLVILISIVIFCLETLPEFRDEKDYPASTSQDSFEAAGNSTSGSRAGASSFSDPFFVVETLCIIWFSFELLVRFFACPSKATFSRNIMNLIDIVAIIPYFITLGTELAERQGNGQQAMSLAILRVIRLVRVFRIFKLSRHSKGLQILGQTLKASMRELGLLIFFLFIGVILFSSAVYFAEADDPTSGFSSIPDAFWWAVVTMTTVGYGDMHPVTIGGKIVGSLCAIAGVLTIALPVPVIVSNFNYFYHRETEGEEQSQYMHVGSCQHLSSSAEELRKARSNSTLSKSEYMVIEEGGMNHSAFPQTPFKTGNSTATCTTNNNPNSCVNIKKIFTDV

Compound | IC50 (hKv1.3) [nM] | IC50 [1, 3] [nM] | IC50 [2] [nM] | IC50 [1, 4] [nM]
CC[C@H](C)[C@@H]1NC(=O)[C@@H](NC(=O)[C@H](CO)NC(=O)[C@@H](N)CCCNC(=N)N)CSSC[C@@H](C(=O)O)NC(=O)[C@H]([C@@H](C)O)NC(=O)CNC(=O)[C@@H]2CSSC[C@@H]3NC(=O)[C@H](CCC(N)=O)NC(=O)[C@H](Cc4ccccc4)NC(=O)[C@H](C)NC(=O)[C@H]([C@@H](C)O)NC(=O)[C@H](CSSC[C@H](NC(=O)[C@H](Cc4ccccc4)NC(=O)[C@H](CCCNC(=N)N)NC(=O)[C@H](CC(C)C)NC(=O)[C@H](CCCNC(=N)N)NC(=O)[C@H](Cc4ccc(O)cc4)NC(=O)[C@H](CCCCN)NC(=O)[C@H](CCSC)NC(=O)[C@H](CO)NC(=O)[C@H](Cc4c[nH]cn4)NC(=O)[C@H](CCCCN)NC3=O)C(=O)N[C@@H](CCCNC(=N)N)C(=O)N[C@@H](CCCCN)C(=O)N[C@@H]([C@@H](C)O)C(=O)N2)NC(=O)[C@H](CCCNC(=N)N)NC(=O)[C@H](CO)NC(=O)[C@H](CCCCN)NC(=O)[C@@H]2CCCN2C(=O)[C@H]([C@@H](C)CC)NC(=O)[C@H]([C@@H](C)O)NC(=O)[C@H](CC(=O)O)NC1=O [[Arg26]ShK] | 0.279 | 0.572 | 0.208 | 
CC[C@H](C)[C@@H]1NC(=O)[C@@H](NC(=O)[C@H](CO)NC(=O)[C@@H](N)CCCNC(=N)N)CSSC[C@@H](C(=O)O)NC(=O)[C@H]([C@@H](C)O)NC(=O)CNC(=O)[C@@H]2CSSC[C@@H]3NC(=O)[C@H](CCC(N)=O)NC(=O)[C@H](Cc4ccccc4)NC(=O)[C@H](C)NC(=O)[C@H]([C@@H](C)O)NC(=O)[C@H](CSSC[C@H](NC(=O)[C@H](Cc4ccccc4)NC(=O)[C@H](CO)NC(=O)[C@H](CCCCN)NC(=O)[C@H](CCCNC(=N)N)NC(=O)[C@H](Cc4ccc(O)cc4)NC(=O)[C@H](CCCCN)NC(=O)[C@H](CCSC)NC(=O)[C@H](CO)NC(=O)[C@H](Cc4c[nH]cn4)NC(=O)[C@H](CCCCN)NC3=O)C(=O)N[C@@H](CCCNC(=N)N)C(=O)N[C@@H](CCCCN)C(=O)N[C@@H]([C@@H](C)O)C(=O)N2)NC(=O)[C@H](CCCNC(=N)N)NC(=O)[C@H](CO)NC(=O)[C@H](CCCCN)NC(=O)[C@@H]2CCCN2C(=O)[C@H]([C@@H](C)CC)NC(=O)[C@H]([C@@H](C)O)NC(=O)[C@H](CC(=O)O)NC1=O [[Lys25]ShK] | 0.101 | 0.366 | 0.226 | 
CC[C@H](C)[C@@H]1NC(=O)[C@@H](NC(=O)[C@H](CO)NC(=O)[C@@H](N)CCCNC(=N)N)CSSC[C@@H](C(=O)O)NC(=O)[C@H]([C@@H](C)O)NC(=O)CNC(=O)[C@@H]2CSSC[C@@H]3NC(=O)[C@H](CCC(N)=O)NC(=O)[C@H](Cc4ccccc4)NC(=O)[C@H](C)NC(=O)[C@H]([C@@H](C)O)NC(=O)[C@H](CSSC[C@H](NC(=O)[C@H](Cc4ccccc4)NC(=O)[C@H](CO)NC(=O)[C@H](CCC(=O)O)NC(=O)[C@H](CCCNC(=N)N)NC(=O)[C@H](Cc4ccc(O)cc4)NC(=O)[C@H](CCCCN)NC(=O)[C@H](CCSC)NC(=O)[C@H](CO)NC(=O)[C@H](Cc4c[nH]cn4)NC(=O)[C@H](CCCCN)NC3=O)C(=O)N[C@@H](CCCNC(=N)N)C(=O)N[C@@H](CCCCN)C(=O)N[C@@H]([C@@H](C)O)C(=O)N2)NC(=O)[C@H](CCCNC(=N)N)NC(=O)[C@H](CO)NC(=O)[C@H](CCCCN)NC(=O)[C@@H]2CCCN2C(=O)[C@H]([C@@H](C)CC)NC(=O)[C@H]([C@@H](C)O)NC(=O)[C@H](CC(=O)O)NC1=O [[Glu25]ShK] | 0.24 |  | 0.494 | 0.678
CC[C@H](C)[C@@H]1NC(=O)[C@@H](NC(=O)[C@H](CCC(=O)O)NC(=O)[C@@H](N)CCCNC(=N)N)CSSC[C@@H](C(=O)O)NC(=O)[C@H]([C@@H](C)O)NC(=O)CNC(=O)[C@@H]2CSSC[C@@H]3NC(=O)[C@H](CCC(N)=O)NC(=O)[C@H](Cc4ccccc4)NC(=O)[C@H](C)NC(=O)[C@H]([C@@H](C)O)NC(=O)[C@H](CSSC[C@H](NC(=O)[C@H](Cc4ccccc4)NC(=O)[C@H](CO)NC(=O)[C@H](CC(C)C)NC(=O)[C@H](CCCNC(=N)N)NC(=O)[C@H](Cc4ccc(O)cc4)NC(=O)[C@H](CCCCN)NC(=O)[C@H](CCSC)NC(=O)[C@H](CO)NC(=O)[C@H](Cc4c[nH]cn4)NC(=O)[C@H](CCCCN)NC3=O)C(=O)N[C@@H](CCCNC(=N)N)C(=O)N[C@@H](CCCCN)C(=O)N[C@@H]([C@@H](C)O)C(=O)N2)NC(=O)[C@H](CCCNC(=N)N)NC(=O)[C@H](CO)NC(=O)[C@H](CCCCN)NC(=O)[C@@H]2CCCN2C(=O)[C@H]([C@@H](C)CC)NC(=O)[C@H]([C@@H](C)O)NC(=O)[C@H](CC(=O)O)NC1=O [[Glu2]ShK] | 0.111 |  | 0.029 | 0.039
CC[C@H](C)[C@@H]1NC(=O)[C@H]([C@@H](C)O)NC(=O)[C@H](CC(=O)O)NC(=O)[C@H](CCC(=O)O)NC(=O)[C@@H](NC(=O)[C@H](CO)NC(=O)[C@@H](N)CCCNC(=N)N)CSSC[C@@H](C(N)=O)NC(=O)[C@H]([C@@H](C)O)NC(=O)CNC(=O)[C@@H]2CSSC[C@@H]3NC(=O)[C@H](CCCCN)NC(=O)[C@H](Cc4ccccc4)NC(=O)[C@H](C)NC(=O)[C@H]([C@@H](C)O)NC(=O)[C@H](CSSC[C@H](NC(=O)[C@H](Cc4ccccc4)NC(=O)[C@H](Cc4cccc5ccccc45)NC(=O)[C@H](CC(C)C)NC(=O)[C@H](CCCNC(=N)N)NC(=O)[C@H](Cc4ccc(O)cc4)NC(=O)[C@H](CCCCN)NC(=O)[C@H](CCSC)NC(=O)[C@H](CO)NC(=O)[C@H](Cc4c[nH]cn4)NC(=O)[C@H](CCCCN)NC3=O)C(=O)N[C@@H](CCCCN)C(=O)N[C@@H](CCCNC(=N)N)C(=O)N[C@@H]([C@@H](C)O)C(=O)N2)NC(=O)[C@H](CCCNC(=N)N)NC(=O)[C@H](CO)NC(=O)[C@H](CCCCN)NC(=O)[C@@H]2CCCN2C1=O [[Glu4; Lys16,29;1-Na126;Arg30]ShK-amide] | 0.384 | 0.598 | 0.712 | 
CC[C@H](C)[C@@H]1NC(=O)[C@H]([C@@H](C)O)NC(=O)[C@H](CC(=O)O)NC(=O)[C@H](Cc2cccc3ccccc23)NC(=O)[C@@H](NC(=O)[C@H](CO)NC(=O)[C@@H](N)CCCNC(=N)N)CSSC[C@@H](C(=O)O)NC(=O)[C@H]([C@@H](C)O)NC(=O)CNC(=O)[C@@H]2CSSC[C@@H]3NC(=O)[C@H](CCC(N)=O)NC(=O)[C@H](Cc4ccccc4)NC(=O)[C@H](C)NC(=O)[C@H]([C@@H](C)O)NC(=O)[C@H](CSSC[C@H](NC(=O)[C@H](Cc4ccccc4)NC(=O)[C@H](CO)NC(=O)[C@H](CC(C)C)NC(=O)[C@H](CCCNC(=N)N)NC(=O)[C@H](Cc4ccc(O)cc4)NC(=O)[C@H](CCCCN)NC(=O)[C@H](CCSC)NC(=O)[C@H](CO)NC(=O)[C@H](Cc4c[nH]cn4)NC(=O)[C@H](CCCCN)NC3=O)C(=O)N[C@@H](CCCNC(=N)N)C(=O)N[C@@H](CCCCN)C(=O)N[C@@H]([C@@H](C)O)C(=O)N2)NC(=O)[C@H](CCCNC(=N)N)NC(=O)[C@H](CO)NC(=O)[C@H](CCCCN)NC(=O)[C@@H]2CCCN2C1=O [[1-Nal4]ShK] | 0.15 | 0.317 | 0.274 | 
CCC[C@@H]1NC(=O)[C@H](CO)NC(=O)[C@H](Cc2c[nH]cn2)NC(=O)[C@H](CCCCN)NC(=O)[C@@H]2CSSC[C@@H]3NC(=O)[C@H]([C@@H](C)O)NC(=O)[C@H](CCCCN)NC(=O)[C@H](CCCNC(=N)N)NC(=O)[C@H](CSSC[C@H](NC(=O)[C@H](CCCNC(=N)N)NC(=O)[C@H](CO)NC(=O)[C@H](CCCCN)NC(=O)[C@@H]4CCCN4C(=O)[C@H]([C@@H](C)CC)NC(=O)[C@H]([C@@H](C)O)NC(=O)[C@H](CC(=O)O)NC(=O)[C@H]([C@@H](C)CC)NC(=O)[C@@H](NC(=O)[C@H](CO)NC(=O)[C@@H](N)CCCNC(=N)N)CSSC[C@@H](C(=O)N[C@@H](CC(=O)O)C(N)=O)NC(=O)[C@H]([C@@H](C)O)NC(=O)CNC3=O)C(=O)N[C@@H]([C@@H](C)O)C(=O)N[C@@H](C)C(=O)N[C@@H](Cc3ccccc3)C(=O)N[C@@H](CCCCN)C(=O)N2)NC(=O)[C@H](Cc2ccccc2)NC(=O)[C@H](CO)NC(=O)[C@H](CC(C)C)NC(=O)[C@H](CCCNC(=N)N)NC(=O)[C@H](Cc2ccc(O)cc2)NC(=O)[C@H](CCCCN)NC1=O [[Lys16,Nva21]ShK-Asp-amide] | 0.28 | 0.349 | 0.255 | 
CC[C@H](C)[C@@H]1NC(=O)[C@H]([C@@H](C)O)NC(=O)[C@H](CC(=O)O)NC(=O)[C@H](CCC(=O)O)NC(=O)[C@@H](NC(=O)[C@H](CO)NC(=O)[C@@H](N)CCCNC(=N)N)CSSC[C@@H](C(N)=O)NC(=O)[C@H]([C@@H](C)O)NC(=O)CNC(=O)[C@@H]2CSSC[C@@H]3NC(=O)[C@H](CCCCN)NC(=O)[C@H](Cc4ccccc4)NC(=O)[C@H](C)NC(=O)[C@H]([C@@H](C)O)NC(=O)[C@H](CSSC[C@H](NC(=O)[C@H](Cc4ccccc4)NC(=O)[C@H](CO)NC(=O)[C@H](CC(C)C)NC(=O)[C@H](CCCNC(=N)N)NC(=O)[C@H](Cc4ccc(O)cc4)NC(=O)[C@H](CCCCN)NC(=O)[C@H](CCSC)NC(=O)[C@H](CO)NC(=O)[C@H](Cc4c[nH]cn4)NC(=O)[C@H](CCCNC(=N)N)NC3=O)C(=O)N[C@@H](CCCCN)C(=O)N[C@@H](CCCNC(=N)N)C(=O)N[C@@H]([C@@H](C)O)C(=O)N2)NC(=O)[C@H](CCCNC(=N)N)NC(=O)[C@H](CO)NC(=O)[C@H](CCCCN)NC(=O)[C@@H]2CCCN2C1=O [[Glu4; Lys16, 29;Arg18, 30]ShK-amide] | 0.192 | 0.353 | 0.203 | 
